These results are taken from patent US12378250B2, “Tricyclic compound as IRAK4 inhibitor” (KOREA RESEARCH INSTITUTE OF CHEMICAL TECHNOLOGY, priority 2018, dated 2025).

In general, IC50 refers to the concentration that gives 50% inhibition. As usually defined, the inhibition is the relative decrease from the control value, in per cent.

The target in assay [1] is T1, IRAK4 enzyme (Homo sapiens, UniProt Q9NWZ3).
T1 sequence (Q9NWZ3 1-460): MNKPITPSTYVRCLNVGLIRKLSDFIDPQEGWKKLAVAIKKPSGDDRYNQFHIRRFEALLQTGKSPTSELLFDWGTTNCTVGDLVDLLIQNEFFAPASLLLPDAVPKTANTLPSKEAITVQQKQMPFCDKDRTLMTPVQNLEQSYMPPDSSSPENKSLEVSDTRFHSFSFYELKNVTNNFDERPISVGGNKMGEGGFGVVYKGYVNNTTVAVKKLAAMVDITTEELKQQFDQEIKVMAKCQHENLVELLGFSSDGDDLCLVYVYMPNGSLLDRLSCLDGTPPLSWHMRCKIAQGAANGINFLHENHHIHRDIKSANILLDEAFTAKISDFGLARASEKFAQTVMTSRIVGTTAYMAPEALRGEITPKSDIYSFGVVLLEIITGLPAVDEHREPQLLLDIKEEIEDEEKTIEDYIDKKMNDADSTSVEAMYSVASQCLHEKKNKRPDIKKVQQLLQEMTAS
Put plainly: IRAK4 enzyme inhibition degree (bead-based kinase assay, peptide substrate BMKC-2, 100 μM ATP). It is filed as biochemical. Conditions: for inhibition at 1 µM: compound 1 μM. The method, then:
2.5 μl of a compound diluted to 4-fold of a final concentration was put into a 384-well white plate (low volume). 2.5 μl of 0.4 ng/μl IRAK4 enzyme was added thereto, and the resulting mixture was totally reacted for 10 minutes. 5 μl of a mixed liquid of a 6 μM peptide substrate (BMKC-2) and 100 μM ATP was added thereto, the resulting mixture was reacted at room temperature for 60 minutes, then 2.5 μl of 10 mM EDTA was added thereto, and the resulting mixture was reacted again for 10 minutes. 40 nM anti-phospho Thr antibody was aliquoted to 2.5 μl each, 5 μl of a mixed solution of a 160 μl/ml acceptor bead and a donor bead was added thereto, and then the resulting mixture was reacted at room temperature for 60 minutes. Fluorescence signals were measured using a bead experimental apparatus (Fusion alpha-FP Microplate Reader, Perkin Elmer Inc.).
From the detected signal, an activity inhibition rate [% inhibition degree=(the average value of a compound−the average value of a negative control)/(the average value of a positive control−the average value of a negative control)×100] was calculated, and is shown in [Table 1]. Further, a % inhibition degree of the compound at each concentration was obtained, and then a 50% inhibition concentration (IC50 value) was analyzed by a non-linear regression analysis.

The subject of assay [2] is TNF-α secretion, peripheral blood mononuclear cells (PBMCs). Put plainly: Suppression of TNF-α secretion in LPS-treated PBMCs (ELISA). It is filed as cell-based. To be noted: PBMC, 100 ng/ml LPS, 24 hours, read-out: TNF-α, % inhibition degree. The protocol:
(§1) Peripheral blood mononuclear cells (PBMCs) isolated from whole blood were distributed in a 96-well plate. TNF-α was aliquoted at a density of 1×10^5 cells/well, IFN-α was aliquoted at a density of 2×10^5 cells/well, and TNF-α and IFN-α were treated with a compound diluted to 4-fold of a final concentration and totally cultured for 30 minutes. TNF-α was treated with 100 ng/ml lipopolysaccharide (LPS), IFN-α was treated with 500 nM ODN2216 (CpGTLR9 stimulator), and TNF-α and IFN-α were further cultured for 24 hours and 72 hours, respectively. An enzyme-linked immunosorbent assay (ELISA) was performed on TNF-α and IFN-α using an ELISA kit manufactured by BD Biosciences and an ELISA kit manufactured by PBL Assay Science, Inc., respectively. A cell supernatant and a standard drug were put into the ELISA plates and reacted for 2 hours. The plates were washed and a measurement antibody and streptavidin-HRP were sequentially added thereto. After the plates were washed, a TMB substrate was added thereto and reacted in a dark place. The reaction was stopped by adding a stop solution thereto, and the absorbance at 450 nm and 570 nm was measured using an absorber (OPTIMax tunable microplate reader, molecular devices). The experimental results are shown in [Table 2].

Assay [3] concerns IFN-α secretion, peripheral blood mononuclear cells (PBMCs). Briefly: Suppression of IFN-α secretion in ODN2216-treated PBMCs (ELISA). Format: cell-based. To be noted: PBMC, 500 nM ODN2216, 72 hours, read-out: IFN-α, % inhibition degree. The protocol: as §1
(In an ELISA, binding on a coated surface is turned into a signal by an enzyme label.)

For assay [4], the system named is NF-κB promoter, THP1-Lucia™ NF-κB cell line. Briefly: NF-κB promoter inhibition, THP1-Lucia NF-κB cell line. It is filed as cell-based. To be noted: 100 ng/ml LPS, 24 hours, read-out: NF-κB, % inhibition degree. The protocol:
(§2) A THP1-Lucia™ NF-κB cell line (Invivogen) was used in an NF-κB inhibition experiment, and a THP1-Lucia™ ISG cell line was used in an ISG inhibition experiment. In the NF-κB inhibition experiment, cells were planted at a density of 1×10^4 cells/well in a 96-well plate, and in the ISG inhibition experiment, cells were planted at a density of 2×10^4 cells/well in a 96-well plate. The cells were treated with a compound diluted to 4-fold of a final concentration, and totally cultured for 30 minutes. NF-κB was treated with 100 ng/ml lipopolysaccharide (LPS), ISG was treated with a stimulator of 1 μg/ml Poly(dA:dT)/LyoVec, and NF-κB and ISG were cultured for 24 hours. 10 μl of a cell supernatant was taken and transferred to a 96-well plate. 50 μl of a Quanti-luc solution was aliquoted using an automatic aliquoter of a measurer (Envision Multilabel Plate Reader, Perkin Elmer, Inc.), and light emission signals were measured.

Assay [5] concerns ISG promoter, THP1-Lucia™ ISG cell line. Put plainly: ISG promoter inhibition, THP1-Lucia ISG cell line. Format: cell-based. Conditions: 1 μg/ml Poly(dA:dT)/LyoVec, 24 hours, read-out: ISG, % inhibition degree. The protocol:
as §2

In assay [1], `Fc1ccc(-c2ccc3[nH]c4ncnc(N[C@H]5CC[C@H](N6CCOCC6)CC5)c4c3c2)c(F)c1` [Compound 6aam, 6-(2,4-difluorophenyl)-N-(trans-4-morpholinocyclohexyl)-9H-pyrimido[4,5-b]indole-4-amine] returned an IC50 of 0.244 µM. The inhibition at 1 µM in assay [1] is 37%; in assay [2], 28%; in assay [3], 55%; in assay [4], 11%; in assay [5] it was < 1%. Moreover, the inhibition at 0.1 µM is 5% in assay [2], 9% in assay [3], < 1% in assay [4] and < 1% in assay [5].

Consider `COc1ccc(-c2ccc3[nH]c4ncnc(N[C@H]5CC[C@H](N6CCOCC6)CC5)c4c3c2)cn1` [Compound 6aah, 6-(6-methoxypyridin-3-yl)-N-(trans-4-morpholinocyclohexyl)-9H-pyrimido[4,5-b]indole-4-amine], for which, in assay [1], the IC50 worked out at 0.04 µM. Besides, the inhibition at 1 µM in assay [1] was determined as 100%; in assay [2], 67%; in assay [3], 79%; in assay [4] it was 63%; in assay [5], 47%. Moreover, the inhibition at 0.1 µM came to 16% in assay [2], 15% in assay [3], 19% in assay [4] and 10% in assay [5].

As for `Cn1cc(-c2ccc3[nH]c4ncnc(Nc5ccc(N6CCNCC6)cc5)c4c3c2)cn1` [Compound 6agaa, 6-(1-methyl-1H-pyrazol-4-yl)-N-(4-(piperazin-1-yl)phenyl)-9H-pyrimido[4,5-b]indole-4-amine], the IC50 in assay [1] came to 1.14 µM. In addition, the inhibition at 1 µM came out at 36% in assay [1]; 27% in assay [2]; 65% in assay [3]; 24% in assay [4]; 16% in assay [5]. Also, the inhibition at 0.1 µM in assay [2] was 17%; in assay [3], 39%; in assay [4], < 1%; in assay [5], 7%.

Turning to `CN(C)[C@H]1CC[C@H](Nc2ncnc3[nH]c4ccc(-c5cncc(F)c5)cc4c23)CC1` [Compound 6aba, trans-N1-(6-(5-fluoropyridin-3-yl)-9H-pyrimido[4,5-b]indol-4-yl)-N4,N4-dimethylcyclohexane-1,4-diamine], in assay [1], the IC50 was 0.004 µM. Also, the inhibition at 1 µM in assay [1] was found to be 83%; in assay [2], 73.3%; in assay [3] it was 81.3%; in assay [4] it was 87%; in assay [5], 83%. In addition, the inhibition at 0.1 µM in assay [2] came out at 39.1%; in assay [3], 3.4%; in assay [4] it was 40%; in assay [5] it was 33%.

In assay [1], `O=[N+]([O-])c1cccc(-c2ccc3[nH]c4ncnc(N[C@H]5CC[C@H](N6CCOCC6)CC5)c4c3c2)c1` [Compound 6aai, N-(trans-4-morpholinocyclohexyl)-6-(3-nitrophenyl)-9H-pyrimido[4,5-b]indole-4-amine] returned an IC50 of 0.0676 µM. In addition, the inhibition at 1 µM in assay [1] came to 98%; in assay [2] it was 62%; in assay [3], 87%; in assay [4] it was 36%; in assay [5], 41%. For the same molecule, the inhibition at 0.1 µM in assay [2] was determined as 13%; in assay [3], 32%; in assay [4] it was 6%; in assay [5], 9%.

`Cn1cc(-c2ccc3[nH]c4nccc(N[C@H]5CC[C@H](N6CCOCC6)CC5)c4c3c2)cn1` [Compound 17a]: the inhibition at 1 µM in assay [1] came to 100%; in assay [2], 75%; in assay [3], 103%; in assay [4] it was 78%; in assay [5], 93%. Besides, the inhibition at 0.1 µM in assay [2] came out at 22%; in assay [3], 67%; in assay [4] it was 31%; in assay [5] it was 14%.

`c1ncc(-c2ccc3[nH]c4ncnc(N[C@H]5CC[C@H](N6CCOCC6)CC5)c4c3c2)cn1` [Compound 6aac, N-(trans-4-morpholinocyclohexyl)-6-(pyrimidin-5-yl)-9H-pyrimido[4,5-b]indole-4-amine] registered a half-maximal inhibitory concentration (IC50) in assay [1] of 0.0126 µM. In addition, the inhibition at 1 µM in assay [1] was 100%; in assay [2] it was 86%; in assay [3], 84%; in assay [4], 64%; in assay [5], 45%. Besides, the inhibition at 0.1 µM in assay [2] came out at 24%; in assay [3] it was 21%; in assay [4] it was 17%; in assay [5] it was 7%.

Consider `CN(C)CCOc1cncc(-c2ccc3[nH]c4ncnc(N[C@H]5CC[C@H](N6CCOCC6)CC5)c4c3c2)c1` [Compound 6aag, 6-(5-(2-(dimethylamino)ethoxy)pyridin-3-yl)-N-(trans-4-morpholinocyclohexyl)-9H-pyrimido[4,5-b]indole-4-amine], for which 0.031 µM corresponded to half-maximal inhibition in assay [1] (IC50). For the same molecule, the inhibition at 1 µM in assay [1] turned out to be 82%; in assay [2] it was 51.4%; in assay [3], 89.5%; in assay [4] it was 37%; in assay [5], 52%. In addition, the inhibition at 0.1 µM worked out at 16.7% in assay [2], 6.4% in assay [3], 12% in assay [4] and 20% in assay [5].

Consider `COc1cncc(-c2ccc3[nH]c4nccc(N[C@H]5CC[C@H](N6CCOCC6)CC5)c4c3c2)c1` [Compound 17b, 6-(5-methoxypyridin-3-yl)-N-(trans-4-morpholinocyclohexyl)-9H-pyrimido[2,3-b]indole-4-amine], for which the IC50 in assay [1] stood at 0.0072 µM. Also, the inhibition at 1 µM in assay [1] is 100%; in assay [2], 63%; in assay [3] it was 110%; in assay [4], 62%; in assay [5], 80%. Also, the inhibition at 0.1 µM in assay [2] was found to be 12%; in assay [3] it was 76%; in assay [4], 14%; in assay [5] it was 4%.
